Consider one compound from patent US5843902A, “Methods for treating prostate cancer with LHRH antagonists” (Praecis Pharmaceuticals Incorporated, priority 1996, dated 1998).

Each structure is given as a SMILES string. Square brackets hold non-standard residues; d marks the D form. Peptide text beside a SMILES is read from it. dPhe(4-Cl) = N[C@H](Cc1ccc(Cl)cc1)C(=O)O; d2Nal = N[C@H](Cc1ccc2ccccc2c1)C(=O)O; Lys(iPr) = CC(C)NCCCC[C@H](N)C(=O)O; NMeY = CN[C@@H](Cc1ccc(O)cc1)C(=O)O; d3Pal = N[C@H](Cc1cccnc1)C(=O)O

One test relates to adult male rats. Nature of the test: Plasma testosterone in adult male rats given PPI-149 by osmotic pump, then leuprolide. Format: in vivo, rat. Conditions: for prevention of leuprolide-induced testosterone surge / suppression of plasma testosterone levels: rat. Here is the method:
In a first series of experiments, adult male rats were first administered an LHRH antagonist having the structure:
(referred to herein as PPI-149). PPI-149 was administered via a subcutaneous continuous osmotic minipump (e.g., the Alzet pump, commercially available from Alza, Palo Alto, Calif.) at a dose of 15 μg/kg/day or 50 μg/kg/day. PPI-149 administration continued for a total of 15-28 days according to several different protocols. A second pump releasing leuprolide (trade name: Lupron®) at 1.8 μg/kg/day was implanted such that there was an overlap of 0, 1 or 7 days with the previously-implanted pump releasing PPI-149.
In the experiment shown in FIG. 1, PPI-149 (at 15 μg/kg/day or 50 μg/kg/day) was administered by osmotic pump for 28 days and then this pump was removed and a second pump administering leuprolide (at 1.8 μg/kg/day) was implanted such that there was no overlap between the antagonist and agonist treatment. Plasma testosterone levels (in ng/ml) were measured during the prolonged administration of PPI-149 alone and following replacement of the PPI-149 pump with the leuprolide pump.
In the experiment shown in FIG. 2, PPI-149 (at 50 μg/kg/day) was administered by osmotic pump for 15 days and then a second pump administering leuprolide (at 1.8 μg/kg/day) was implanted such that there was one day of overlap between the antagonist and agonist treatment (i.e., the first PPI-149-releasing pump was removed one day after implantation of the second leuprolide-releasing pump). Plasma testosterone levels were measured during the prolonged administration of PPI-149 alone and following removal of the PPI-149 pump when leuprolide alone was administered.
In the experiment shown in FIG. 3, PPI-149 (at 15 μg/kg/day or 50 μg/kg/day) was administered by osmotic pump for 28 days and then a second pump administering leuprolide (at 1.8 μg/kg/day) was implanted such that there was one day of overlap between the antagonist and agonist treatment (i.e., the first PPI-149-releasing pump was removed one day after implantation of the second leuprolide-releasing pump). Plasma testosterone levels were measured during the prolonged administration of PPI-149 alone and following removal of the PPI-149 pump when leuprolide alone was administered.
In the experiment shown in FIG. 4, PPI-149 (at 15 μg/kg/day or 50 μg/kg/day) was administered by osmotic pump for 28 days and then a second pump administering leuprolide (at 1.8 μg/kg/day) was implanted such that there were seven days of overlap between the antagonist and agonist treatment (i e., the first PPI-149-releasing pump was removed seven days after implantation of the second leuprolide-releasing pump). Plasma testosterone levels were measured during the prolonged administration of PPI-149 alone and following removal of the PPI-149 pump when leuprolide alone was administered.

For a further test, the system named is male cynomolgus monkeys. As to the kind of experiment: Plasma testosterone in male cynomolgus monkeys given PPI-149 by osmotic pump, then depot leuprolide. The class given is in vivo. The conditions noted are these: cynomolgus monkey. The protocol: In a second series of experiments, male cynomolgus monkeys were administered the LHRH antagonist PPI-149 via a subcutaneous continuous osmotic minipump (Alzet pump; Alza, Palo Alto, Calif.) at a dose of 0, 30, 100 or 300 μg/kg/day for a period of 28 days. On day 28, pumps were removed and monkeys were administered a single intramuscular dose of the depot, sustained-release (one-month) formulation of Luprong, equivalent to 0.16 mg/kg. This dose of leuprolide is 1.6 times that used in the treatment of prostate cancer in humans (0.1 mg/kg) and 3.2 times that used in the treatment of endometriosis (0.05 mg/kg).

[1] abbreviates: PPI-149 50 μg/kg/day osmotic pump 15 days, one day overlap with leuprolide 1.8 μg/kg/day (FIG. 2).
Where [2] appears, read: PPI-149 50 μg/kg/day osmotic pump 28 days, one day overlap with leuprolide 1.8 μg/kg/day (FIG. 3).
Setting [3] is: PPI-149 50 μg/kg/day osmotic pump 28 days, seven days overlap with leuprolide 1.8 μg/kg/day (FIG. 4).
[4] abbreviates: PPI-149 50 μg/kg/day s.c. osmotic pump 28 days, no overlap with leuprolide 1.8 μg/kg/day (FIG. 1).

For the compound `CC(=O)N[C@H](Cc1ccc2ccccc2c1)C(=O)N[C@H](Cc1ccc(Cl)cc1)C(=O)N[C@H](Cc1cccnc1)C(=O)N[C@@H](CO)C(=O)N(C)[C@@H](Cc1ccc(O)cc1)C(=O)N[C@H](CC(N)=O)C(=O)N[C@@H](CC(C)C)C(=O)N[C@@H](CCCCNC(C)C)C(=O)N1CCC[C@H]1C(=O)N[C@H](C)C(N)=O` [PPI-149, Ac-D-Nal^1,4-Cl-D-Phe^2, D-Pal^3, N-Me-Tyr^5, D-Asn^6, Lys(iPr)^8, D-Ala^10 -LHRH] (Ac-[d2Nal][dPhe(4-Cl)][d3Pal]S[NMeY][dN]L[Lys(iPr)]P[dA]-NH2), the “prevention of testosterone surge induced by LHRH agonist (summary of FIGS. 1-4)” value with adult male rats (adult male rats, PPI-149 50 μg/kg/day, 0, 1 or 7 days) is given as “can prevent the testosterone surge induced by LHRH agonist administration”. Further, the “prevention of leuprolide-induced testosterone surge” value with adult male rats (setting [1]), in the test with adult male rats (setting [2]), in the test on adult male rats (setting [3]) and with adult male rats (setting [4]) was “prevented the leuprolide-induced testosterone surge” throughout. Besides, the “suppression of plasma testosterone levels” value in the test on adult male rats (setting [1]), with adult male rats (setting [2]), in the test with adult male rats (setting [3]) and in the test with adult male rats (setting [4]) was “suppressed plasma testosterone levels to castrate levels” throughout. The “blockade of testosterone surge from depot Lupron” value in the test on male cynomolgus monkeys (PPI-149 100 μg/kg/day 28 days, pump removed, single i.m. one-month depot leuprolide equivalent to 0.16 mg/kg on day 28 (FIG. 5)) is recorded as “complete blockade of the testosterone surge”. The “medical castration (plasma testosterone)” value in the test with male cynomolgus monkeys (PPI-149 100 μg/kg/day s.c. osmotic pump 28 days (FIG. 5)) was “rapid, complete medical castration within the first two days of treatment”.
